From paper PMC2691174 (Cancer, 2009)
Where two headings read alike, the source gives them in different places. One block for each compound: values may come before it.

Columns and labels:
[1] = for tmax Mean(Range): stratum A (no EIAEDs, N=14), imatinib 400 mg/day
[2] = Plasma pharmacokinetics of hydroxyurea; conditions: for AUC0−12 / 0−12 Mean(Range) / Cl/F Mean(Range) / Cmax/D Mean(Range) / t1/2 Mean(Range) / tmax Mean(Range): hydroxyurea 500 mg twice-a-day
[3] = tested on: recurrent GBM patients; conditions: single agent; cited from earlier work
[4] = tested on: patients with newly diagnosed glioblastoma (GBM); conditions: radiotherapy plus temozolomide; cited from earlier work
[5] = Plasma pharmacokinetics of vatalanib; assay type: in vivo, human; conditions: for Tmax: human, plasma, oral, tmax Mean(Range)
[6] = tested on: PDGFRβ; conditions: cited from earlier work
[7] = tested on: recurrent malignant glioma patients; assay: Phase I dose escalation: MTD, DLT and toxicity; conditions: all patients, with imatinib and hydroxyurea
[8] = stratum A (no EIAEDs, N=14), day 8 of cycle 1
[9] = stratum A (no EIAEDs, N=14), day 35 of cycle 1
[10] = stratum B (on EIAEDs, N=6), day 8 of cycle 1
[11] = stratum B (on EIAEDs, N=6), day 35 of cycle 1
[12] = stratum B (on EIAEDs, N=8), day 7 (vatalanib alone, steady state)
[13] = stratum B (on EIAEDs, N=8), day 35 (with imatinib and hydroxyurea)
[14] = stratum A (no EIAEDs, N=15), day 7 (vatalanib alone, steady state)
[15] = stratum A (no EIAEDs, N=15), day 35 (with imatinib and hydroxyurea)

tmax Mean(Range) ([1]; day 8 of cycle 1): 3.43(2.00−6.00) h
tmax Mean(Range) ([1]; day 35 of cycle 1): 3.57(1.00−8.00) h
SMILES: Cc1ccc(NC(=O)c2ccc(CN3CCNCC3)cc2)cc1Nc1nccc(-c2cccnc2)n1 [CGP74588]

effect of EIAEDs or time on hydroxyurea pharmacokinetics ([2]; in vivo): no relevant effect
AUC0−12 / 0−12 Mean(Range) [2, 8]: 50.4(9.50−91.1) ng/mL*h/mg
Cl/F Mean(Range) [2, 8]: 15.2(5.50−52.5) L/h
Cmax/D Mean(Range) [2, 8]: 18.5(6.80−29.6) ng/mL/mg
t1/2 Mean(Range) [2, 8]: 4.84(1.60−12.5) h
tmax Mean(Range) [2, 8]: 1.29(0.50−2.00) h
AUC0−12 / 0−12 Mean(Range) [2, 9]: 41.7(13.0−84.5) ng/mL*h/mg
Cl/F Mean(Range) [2, 9]: 15.4(5.90−38.4) L/h
Cmax/D Mean(Range) [2, 9]: 19.4(5.60−32.6) ng/mL/mg
t1/2 Mean(Range) [2, 9]: 3.29(1.40−6.80) h
tmax Mean(Range) [2, 9]: 1.30(0.50−4.00) h
AUC0−12 / 0−12 Mean(Range) [2, 10]: 37.38(18.1−60.4) ng/mL*h/mg
Cl/F Mean(Range) [2, 10]: 16.4(8.3−27.6) L/h
Cmax/D Mean(Range) [2, 10]: 16.5(7.60−35.0) ng/mL/mg
t1/2 Mean(Range) [2, 10]: 3.5(2.70−5.40) h
tmax Mean(Range) [2, 10]: 1.80(0.50−4.00) h
AUC0−12 / 0−12 Mean(Range) [2, 11]: 41.4(17.0−70.1) ng/mL*h/mg
Cl/F Mean(Range) [2, 11]: 15.4(7.10−29.4) L/h
Cmax/D Mean(Range) [2, 11]: 19.0(7.80−31.4) ng/mL/mg
t1/2 Mean(Range) [2, 11]: 7.12(2.50−21.5) h
tmax Mean(Range) [2, 11]: 0.90(0.50−1.50) h
SMILES: NC(=O)NO [Hydroxyurea]

SMILES: Cc1ccc(NC(=O)c2ccc(CN3CCN(C)CC3)cc2)cc1Nc1nccc(-c2cccnc2)n1 [Imatinib]
effect of hydroxyurea on imatinib pharmacokinetics ([1]; fully apparent at day 35, more pronounced in patients taking EIAEDs): increase in Cmax/D and decreases in CL/F and V/F

SMILES: COc1cc2c(Oc3ccc4[nH]c(C)cc4c3F)ncnc2cc1OCCCN1CCCC1 [cedarinib]
median PFS [3]: 16 weeks
radiographic response rate [3]: 50%

SMILES: Cn1nnc2c(C(N)=O)ncn2c1=O [temozolomide]
median progression-free survival (PFS) [4]: 6.9 months

SMILES: Clc1ccc(Nc2nnc(Cc3ccncc3)c3ccccc23)cc1 [vatalanib]
effect of vatalanib dose on vatalanib pharmacokinetic parameters ([5]; 500 to 1250 mg twice daily): no significant effect
decrease of vatalanib Cmax/D by use of EIAEDs ([5]; day 7): approximately 3 fold
effect of EIAEDs on vatalanib plasma t1/2 ([5]; day 7): not significantly affecting
increase of vatalanib CL/F by use of EIAEDs ([5]; day 7): approximately 3 fold
increase of vatalanib V/F by use of EIAEDs ([5]; day 7): more than 3 fold
Tmax [5, 12]: 1.79 h
Tmax [5, 13]: 2.13 h
AUC0−12 / 0−12 Mean(Range) [5, 14]: 11.1(2.23−16.1) ng/mL*h/mg
Cl/F Mean(Range) [5, 14]: 122(62.0−448) L/h
Cmax/D Mean(Range) [5, 14]: 3.12(0.72−5.03) ng/mL/mg
AUC0−12 / 0−12 Mean(Range) [5, 15]: 10.4(3.28−25.5) ng/mL*h/mg
Cl/F Mean(Range) [5, 15]: 137(39.3−305) L/h
Cmax/D Mean(Range) [5, 15]: 2.82(0.82−7.38) ng/mL/mg
AUC0−12 / 0−12 Mean(Range) [5, 12]: 4.51(1.31−12.1) ng/mL*h/mg
Cl/F Mean(Range) [5, 12]: 377(82.3−765) L/h
Cmax/D Mean(Range) [5, 12]: 1.15(0.40−2.46) ng/mL/mg
AUC0−12 / 0−12 Mean(Range) [5, 13]: 6.75(0.73−17.7) ng/mL*h/mg
Cl/F Mean(Range) [5, 13]: 368(56.5−1371) L/h
Cmax/D Mean(Range) [5, 13]: 1.91(0.16−6.52) ng/mL/mg
PDGFRβ IC50 relative to that of imatinib [6]: approximately twice
recommended vatalanib dose ([7]; irrespective of EIAEDs): 1000 mg twice-a-day
MTD of vatalanib ([7]; continuous daily schedule): 1000 mg twice-a-day
